# Laboratory results taken from patent US20040028714A1, “Composition having insect repellent characteristics” (priority 2000, published 2004).
# “And” between values parts separate entries of the source, which are not always exact repeats. Identical values can stand only once.
# Key:
# [1] = tested on: Casemaking Clothes Moths (Tinea pellionella); test: Adult clothes moth repellency on treated woolen cloth (Example 5); type: in vivo; settings: fabric soaked in 20 g/L in ethanol, 2 days after moth introduction; for Moths Present, Treated Section, Total (%) / Moths Present, Untreated Section, Total (%): share of moths found in the two boxes; for The Number of Moths Present, Treated Section / The Number of Moths Present, Untreated Section: single replicates (n = 50); for The Number of Moths Present, Treated Section, Total / The Number of Moths Present, Untreated Section, Total: total of 4 replicates
# Description: The effectiveness of compound 2 (example 1) to reduce the presence of cloth moths on woolen cloth was determined and was directly compared to the repellency of the well known moth repellents Citronellol and Farnesol.
# The study was conducted in an air conditioned laboratory at a temperature of 22°±2° C. under a normal day/night cycle, using Casemaking Clothes Moths (Tinea pellionella) of mixed sex and age. The study is conducted over a 5 days period and the repellent effectiveness was assessed as follows:
# Adults—2 days after insect introduction
# A 10 cm×10 cm square of black woolen fabric free of bactericide) was soaked in a solution of the candidate repellent in ethanol at 20 g/L, squeezed and allowed to dry. The woollen square was placed in a small box (5 cm×10 cm×10 cm) which was open at one end to allow entry of adult clothes moth.
# A similar square of fabric treated with ethanol (control) was placed in another box of the same size.
# These two boxes were placed in an aquarium and 50 mixed sex adult moths were added. These were provided with food and water and left for 5 days.
# At the end of 2 days the number of adult moths in each box was counted.
# The above was repeated 3 times to provide 4 replicates.
# [2] = tested on: Black Ants (Ochetellus sp); test: Ant repellency on half-treated formica (Example 4); type: in vivo; settings: ants, 20 mg/m^2 on formica
# Description: The effectiveness of compound 2 (example 1) as an insect repellent was determined using ants exposed to a formica surface partially treated/partially untreated with compound 2, and was directly compared to the repellency of the well known insect repellents Farnesol and Dihydrofarnesal.
# The study was conducted in an air conditioned laboratory at a temperature of 22°±2° C. under a normal day/night cycle, using Black Ants (Ochetellus sp) of mixed sex and age. The study ws conducted over a 3 day period and the repellent effectiveness assessed 1, 2 and 3 days after ant introduction.
# One half of a rectangle of formica 40 cm×30 cm was treated at 20 mg/m^2 with the test compounds. This was achieved by soaking a paper wipe (Rag On A Roll approximately 20 cm×20 cm) in a solution of the test compound in ethanol, squeezing out the excess liquid and wiping over the surface to give the required coverage. This was checked by weighing the cloth after application. The surface was allowed to dry. The other half was wiped with ethanol alone (untreated surface).
# The treated formica rectangle was placed on the bench and a glass ring (diameter 20 cm) was placed on the rectangle. This had been treated with fluon to prevent ant escape.
# A small plastic container 2 cm in diameter was placed on the formica, one on the treated surface and one on the untreated surface. The plastic container placed on the treated surface had repellent applied in the same way as the treated formica. The plastic container on the untreated surface was wiped with ethanol.
# 24 hours after treatment (1 day) 20 ants were added to the centre of the formica. No food and water was supplied for these ants. 2 hours after this the number of ants on the treated and untreated surfaces was counted.
# The above was repeated 3 times to provide a total of 4 replicates.
# The above was repeated at 2 days and 3 days. New ants were used at each time period.
Structure (SMILES),"Moths Present, Treated Section, Total (%) [1]","Moths Present, Untreated Section, Total (%) [1]","The Number of Moths Present, Treated Section [1]","The Number of Moths Present, Untreated Section [1]","The Number of Moths Present, Treated Section, Total [1]","The Number of Moths Present, Untreated Section, Total [1]",Percentage Dead ([2]; 1 day after treatment) [%],"Percentage Present, Treated Section ([2]; 1 day after treatment) [%]","Percentage Present, Untreated Section ([2]; 1 day after treatment) [%]",Percentage Dead ([2]; 2 days after treatment) [%],"Percentage Present, Treated Section ([2]; 2 days after treatment) [%]","Percentage Present, Untreated Section ([2]; 2 days after treatment) [%]",Percentage Dead ([2]; 3 days after treatment) [%],"Percentage Present, Treated Section ([2]; 3 days after treatment) [%]","Percentage Present, Untreated Section ([2]; 3 days after treatment) [%]","Percentage Dead, Average ([2]; average of days 1, 2 and 3) [%]","Percentage Present, Untreated Section, Average ([2]; average of days 1, 2 and 3) [%]"
CC(C)=CCCC(C)CCO (centres unmarked) [Citronellol],(23.9%),(76.1%),7 and 0 and 5 and 14,20 and 12 and 26 and 25,26,83,,,,,,,,,,,
"CC(C)=CCCC(C)=CCCC(C)=CCO [Farnesol, 3,7,11-Trimethyl-2,6,10-dodecatrien-1-ol]",(26.0%),(74.0%),9 (2×) and 4 and 5,18 and 19 (2×) and 21,27,77,0,20.0,80.0,0,10.0,90.0,0,20.0,80.0,0,83.3
